Results published in article PMC9395450, “Phase 1 study to evaluate the effects of rifampin on pharmacokinetics of pevonedistat, a NEDD8-activating enzyme inhibitor in patients with advanced solid tumors” (Investigational New Drugs, 2022).
“Also recorded” adds a separate entry of the source. Read-outs that look alike come from different tables or passages of the source.

Tests used:
[1] = design: method as in PMID 30845347; conditions: strong CYP3A/P-glycoprotein inhibitor itraconazole; ref [16]; cited from earlier work
[2] = design: method as in PMID 33089874; conditions: following intravenous administration; ref [14]; cited from earlier work
[3] = Safety: treatment-emergent adverse events (NCI CTCAE v4.03), safety population; assay type: in vivo, human; conditions: N=20
Experimental: Safety was assessed by incidence and severity of treatment-emergent adverse events (TEAEs), vital signs, physical examinations, electrocardiograms, and clinical laboratory tests, and toxicities were graded according to the National Cancer Institute Common Terminology Criteria for Adverse Events (NCI CTCAE), version 4.03.
(§1) Pevonedistat PK was assessed in all patients who received the protocol-specified pevonedistat and rifampin doses in Part A, and had sufficient concentration–time data to permit reliable estimation of PK parameters (PK-evaluable population). PK data were summarized using descriptive statistics. For assessment of the effect of rifampin on pevonedistat PK, the ratios of geometric mean Cmax, AUClast and AUCinf of pevonedistat in the presence of rifampin on Day 10 versus in the absence of rifampin on Day 1 and associated 90% CI were calculated based on analysis of variance. Estimates for each PK parameter were obtained using a mixed effects model of log(PK parameter) with fixed terms for the rifampin effect and random terms for patient. Safety was assessed in all patients who received at least one dose of pevonedistat, and TEAEs were coded according to the Medical Dictionary for Regulatory Activities (MedDRA), version 20.0.

[4] = Phase 1 drug-drug interaction study: single-dose pevonedistat plasma PK in the absence or presence of rifampin; assay type: in vivo, human; conditions: for AUC(0-t) / AUC(0-inf) / Cmax / clearance / Vd / half-life: human, plasma; for clearance: 50 mg/m2, plasma clearance, read-out: CL geometric mean (CV) (converted); for Vd: read-out: Vss geometric mean (CV); for half-life: read-out: t1/2z mean (SD) (converted)
Experimental: This was an open-label, multi-center study in adult patients with advanced solid tumors (NCT03486314). Eligible patients received a single 50 mg/m^2 pevonedistat dose via a 1-h infusion on Days 1 and 10, and daily oral dosing of rifampin 600 mg Days 3–11. Serial blood samples for the measurement of pevonedistat plasma concentrations were collected over 48 h following pevonedistat dosing. Pevonedistat PK parameters and ratios of geometric means for maximal plasma concentration (Cmax) and area under the plasma concentration versus time curve from time 0 to infinity (AUC0–inf) were calculated in the presence of rifampin (Day 10) and in reference to the absence of rifampin (Day 1), with associated 90% confidence intervals (CI) estimated using analysis of variance.
Serial blood samples for measuring pevonedistat concentrations were collected at intervals from 0 (predose) to 48 h after the single doses of pevonedistat on Day 1 and Day 10. Plasma samples were analyzed for pevonedistat concentrations using a previously reported validated liquid chromatography/mass spectrometry (LC–MS/MS) assay.
Pevonedistat PK parameters were calculated by noncompartmental analysis of the pevonedistat plasma concentration–time data using Phoenix WinNonlin version 8.1 (Certara, Princeton, NJ). The following single-dose PK parameters were derived: Cmax, AUC0-inf, AUC from time 0 to the last quantifiable concentration (AUC0–last), terminal disposition phase half-life (t1/2), clearance (CL), and volume of distribution at steady state (Vss).
as §1

[5] = ref [10]–[13], cited from earlier work
[6] = design: method as in PMID 31355467; conditions: ref [15], cited from earlier work
[7] = most common TEAEs (≥ 15% of patients)
[8] = single dose 50 mg/m^2 ± rifampin
[9] = single dose 50 mg/m^2 ± rifampin, listed as Pevonedistat
[10] = iv, 50 mg/m2, single 50 mg/m^2 IV, in the absence of rifampin (Day 1), N=20
[11] = iv, 50 mg/m2, single 50 mg/m^2 IV, in the presence of rifampin (Day 10), N=17
[12] = presence of rifampin (Day 10) vs absence (Day 1)

For `NS(=O)(=O)OC[C@@H]1C[C@@H](n2ccc3c(N[C@H]4CCc5ccccc54)ncnc32)C[C@@H]1O` [pevonedistat, Pevonedistat], the “effect of itraconazole on pevonedistat systemic exposure / PK” value [1] is given as “no clinically relevant effects; also recorded: did not result in clinically meaningful increase”, the whole-blood-to-plasma ratio [2] is given as 40 and the “TEAE of hypersensitivity leading to interruption of study drug or permanent withdrawal, patients” value [3] is given as “Two”. For the same compound, the “TEAE decreased appetite, patients” value [3, 7] was 4 [20%] n [%], the “TEAE diarrhea, patients” value [3, 7] was 3 [15%] n [%] and the “TEAE fatigue, patients” value [3, 7] was 3 [15%] n [%]. For the same compound, the “Drug-related TEAEs, Events” value [3, 8] was 14, the “Grade ≥ 3 TEAEs, Events” value [3, 8] was 17 and the “Grade ≥ 3 drug related TEAEs, Events” value [3, 8] was 3. For the same compound, the “Grade ≥ 3 drug related TEAEs, Patients (%)” value [3, 8] was 3 (15%) n (%), the “On-study deaths, Events” value [3, 8] was 1 and the “Serious TEAEs leading to study drug discontinuation, Events” value [3, 8] was 1. For the same compound, the “Serious TEAEs leading to study drug discontinuation, Patients (%)” value [3, 8] was 1 (5.0) n (%), the “Serious TEAEs, Events” value [3, 8] was 4 and the “Serious TEAEs, Patients (%)” value [3, 8] was 3 (15%) n (%). For the same compound, the “Serious TEAEs, drug related, Events” value [3, 8] was 1, the “Serious TEAEs, drug related, Patients (%)” value [3, 8] was 1 (5.0) n (%) and the “TEAEs leading to study drug discontinuation, Events” value [3, 8] was 1. The “TEAEs leading to study drug discontinuation, Patients (%)” value [3, 8] was 1 (5.0) n (%), the “TEAEs leading to study drug dose delayed, Events” value [3, 8] was 0 and the “TEAEs leading to study drug dose delayed, Patients (%)” value [3, 8] was 0 n (%). For the same compound, the “TEAEs leading to study drug dose interruption, Events” value [3, 8] was 0, the “TEAEs leading to study drug dose interruption, Patients (%)” value [3, 8] was 0 n (%) and the “TEAEs leading to study drug dose reduction, Events” value [3, 8] was 0. For the same compound, the “TEAEs leading to study drug dose reduction, Patients (%)” value [3, 8] was 0 n (%), the “TEAEs, Events” value [3, 8] was 82 and the “TEAEs, Patients (%)” value [3, 8] was 16 (80%) n (%). For the same compound, the “Drug-related TEAEs, Patients (%)” value [3, 9] was 9 (45.0) n (%), the “Grade ≥ 3 TEAEs, Patients (%)” value [3, 9] was 7 (35.0) n (%) and the “Grade ≥ 3 drug related TEAEs, Patients (%)” value [3, 9] was 3 (15.0) n (%). The “On-study deaths, Patients (%)” value [3, 9] was 1 (5.0) n (%), the “Serious TEAEs, Patients (%)” value [3, 9] was 3 (15.0) n (%) and the “TEAEs, Patients (%)” value [3, 9] was 16 (80.0) n (%). For the same compound, the “geometric mean AUClast in the presence of rifampin as % of that in the absence” value ([4]; Day 10 vs Day 1, 90% CI 68.4%–90.1%) was 78.5%, the “geometric mean AUC∞ (AUC0–inf) in the presence of rifampin as % of that in the absence” value ([4]; Day 10 vs Day 1, 90% CI 69.2%–90.2%) was 79% and the “geometric mean Cmax in the presence of rifampin as % of that in the absence” value ([4]; Day 10 vs Day 1, 90% CI 79.2%–117%) was 96.2%. For the same compound, the “decrease in pevonedistat systemic exposure with rifampin” value ([4]; coadministration with rifampin) was “approximately 20%”, the AUC(0-t) ([4]; intravenous, 50 mg/m^2, mixed-effects model, in the absence of rifampin, N=20, read-out: AUClast LS mean) was 2990 ng·h/mL and the AUC(0-inf) ([4]; intravenous, 50 mg/m^2, mixed-effects model, in the absence of rifampin, N=20, read-out: AUC∞ LS mean) was 3030 ng·h/mL. It also gave a Cmax ([4]; intravenous, 50 mg/m^2, mixed-effects model, in the absence of rifampin, N=20, read-out: Cmax LS mean) of 602 ng/mL, an AUC(0-t) ([4]; intravenous, mixed-effects model, in the presence of rifampin, N=17, read-out: AUClast LS mean) of 2340 ng·h/mL and an AUC(0-inf) ([4]; intravenous, mixed-effects model, in the presence of rifampin, N=17, read-out: AUC∞ LS mean) of 2390 ng·h/mL. The Cmax ([4]; intravenous, mixed-effects model, in the presence of rifampin, N=17, read-out: Cmax LS mean) was 579 ng/mL, the clearance ([4]; iv, single 50 mg/m^2 IV, in the absence of rifampin (Day 1), N=20) was 550 mL/min and the clearance ([4]; iv, single 50 mg/m^2 IV, in the presence of rifampin (Day 10), N=17) was 692 mL/min. The AUC(0-t) ([4]; iv, 50 mg/m2, single 50 mg/m^2 IV, in the absence of rifampin (Day 1), N=20, read-out: AUClast geometric mean (CV)) was 2990 ng·h/mL, the AUC(0-inf) ([4]; iv, 50 mg/m2, single 50 mg/m^2 IV, in the absence of rifampin (Day 1), N=20, read-out: AUC∞ geometric mean (CV)) was 3030 ng·h/mL and the Vd [4, 10] was 278 L. For the same compound, the half-life [4, 10] was about 7 h, the AUC(0-t) ([4]; iv, 50 mg/m2, single 50 mg/m^2 IV, in the presence of rifampin (Day 10), N=17, read-out: AUClast geometric mean (CV)) was 2330 ng·h/mL and the AUC(0-inf) ([4]; iv, 50 mg/m2, single 50 mg/m^2 IV, in the presence of rifampin (Day 10), N=17, read-out: AUC∞ geometric mean (CV)) was 2370 ng·h/mL. For the same compound, the Vd [4, 11] was 265 L, the half-life [4, 11] was 5.7 h and the Cmax ([4]; single 50 mg/m^2 1-h IV infusion, in the absence of rifampin (Day 1), N=20, read-out: Cmax geometric mean (CV)) was 602 ng/mL. The Cmax ([4]; single 50 mg/m^2 1-h IV infusion, in the presence of rifampin 600 mg daily (Day 10), N=17, read-out: Cmax geometric mean (CV)) was 564 ng/mL, the “CL geometric mean (CV)” value ([4]; plasma clearance, single 50 mg/m^2 IV, in the absence of rifampin (Day 1), N=20) was 33.1 (31.2%) L/h and the “AUClast LS mean ratio (90% CI)” value [4, 12] was 0.785 (0.684–0.901). The “AUC∞ LS mean ratio (90% CI)” value [4, 12] was 0.790 (0.692–0.902), the “Cmax LS mean ratio (90% CI)” value [4, 12] was 0.962 (0.792–1.17) and the “t1/2z mean (SD)” value ([4]; single 50 mg/m^2 IV, in the absence of rifampin (Day 1), N=20) was 7.4 (1.4) h. For the same compound, the “recommended dose for clinical investigation as a single agent” value ([5]; Days 1, 3 and 5 in 21-day cycles) was 50 mg/m^2, the “maximum tolerated dose (MTD)” value ([5]; in combination with azacitidine) was 20 mg/m^2 and the “maximum tolerated dose (MTD)” value ([5]; in combination with carboplatin plus paclitaxel) was 20 mg/m^2. For the same compound, the “maximum tolerated dose (MTD)” value ([5]; in combination with docetaxel) was 25 mg/m^2, the PK dose linearity ([6]; dose range 25–278 mg/m^2) was “linear” and the “impact of age, sex, tumor type, mild or moderate renal impairment (creatinine clearance ≥ 30 mL/min) on PK” value [6] was “no impact”. For the same compound, the “inter-patient variability in pevonedistat clearance” value [6] was “approximately 30%”.
